Earlier results, collected in patent US20100249042A1, “COMPOSITIONS AND METHODS FOR TREATMENT OF EYELASHES AND EYEBROWS” (ProCyte Corporation, priority 2009, published 2010).

Tests used:
human hair follicles = details: ex vivo; Pyo et al. 2007
[1] = test system: Dermal papilla cells (DPCs); details: in vitro; Pyo et al. 2007

For “L-alanyl-L-histidyl-L-lysine:copper(II) [AHK-Cu]”, the “elongation of human hair follicles” value (human hair follicles) is given as “stimulated” and the “proliferation of DPCs” value [1] is given as “stimulated”.
